Results published in ChEMBL document CHEMBL1201862, “PubChem BioAssay data set” (2004).
Values joined by “and” are separate entries in the source; they are usually repeats but may differ in a detail not shown here. Equal entries are not always repeated.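 Each compound was tested at five concentrations against cells in 96-well plates for 48 hours. GI50 is the concentration that inhibits growth by half.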 Active and inactive are the calls of the source. No stated cut-off is given here; in the data, active = GI50 up to about 1.1 µM and inactive = higher.

What was measured:
Test in all cases: DTP human tumour cell line panel, 48 h
XF498 = test system: XF498
DLD-1 = test system: DLD-1
SNB-78 = test system: SNB-78
LXFL 529 = test system: LXFL 529
DMS-114 = test system: DMS-114
KM-20L2 = test system: KM-20L2
M19-MEL = test system: M19-MEL
RXF 631 = test system: RXF 631
DMS-273 = test system: DMS-273

Measured: GI50

c1ccc(C2[C@@H]3CCCc4ccccc4C3=NN2c2ccccc2)cc1 (stereo not given in full)
inactive: XF498 28.2 µM | DLD-1 51.6 µM | SNB-78 > 100 µM | LXFL 529 53.2 µM | DMS-114 > 100 µM | KM-20L2 > 100 µM | M19-MEL > 100 µM

COC(=O)C12C3C4C1C1C2C3C41C(=O)OC(C)(C)C (stereo not given)
inactive: RXF 631 > 100 µM | DMS-273 > 44.1 µM | XF498 > 100 µM | DLD-1 > 47.9 µM | SNB-78 > 100 µM | LXFL 529 > 100 µM | DMS-114 > 44.8 µM | KM-20L2 > 100 µM | M19-MEL > 100 µM

O/N=C/c1cc2c(cc1Br)OCO2
inactive: RXF 631 > 100 µM | DMS-273 > 100 µM | DLD-1 > 100 µM | SNB-78 > 100 µM | LXFL 529 > 100 µM | KM-20L2 > 100 µM | M19-MEL > 100 µM

CSC1CC2C(CC1(C)O)C2(C)C (stereo not given)
inactive: DMS-273 > 100 µM and 69.3 µM | DLD-1 > 100 µM | SNB-78 > 100 µM | LXFL 529 > 100 µM | KM-20L2 > 100 µM and 74.8 µM | M19-MEL > 100 µM

Cc1nc2ccccc2c(=O)n1NC(=S)Nc1cccc(Cl)c1
inactive: DMS-273 > 100 µM | DLD-1 > 100 µM | LXFL 529 > 100 µM | M19-MEL > 100 µM

Nc1ccc(Sc2c3ccccc3nc3ccccc23)cc1
inactive: DMS-273 14.1 µM | XF498 14.4 µM | DLD-1 6 µM | SNB-78 22.4 µM | LXFL 529 7.96 µM | DMS-114 18.2 µM | KM-20L2 16.7 µM | M19-MEL 20.5 µM

COC(=O)C(C(=O)C(=O)Nc1cccc(O)c1)c1nc2ccc(Cl)cc2nc1O (stereo not given)
inactive: RXF 631 > 100 µM | DLD-1 > 100 µM | SNB-78 > 100 µM | LXFL 529 > 100 µM | DMS-114 > 100 µM | KM-20L2 > 100 µM | M19-MEL > 100 µM

O=C(Nc1ccc(S(=O)(=O)N[C@@H](C(=O)O)c2ccccc2)cc1)c1ccc(F)cc1
inactive: DMS-273 > 100 µM | XF498 67.5 µM | DLD-1 > 100 µM | LXFL 529 > 100 µM | KM-20L2 > 100 µM | M19-MEL > 100 µM

O=C(NC(=O)c1c(F)cccc1F)Nc1cccc(Oc2ncc(Cl)cn2)c1
inactive: RXF 631 > 100 µM | DMS-273 2.45 µM | XF498 19.7 µM | DLD-1 > 100 µM | SNB-78 > 100 µM | LXFL 529 > 91 µM | M19-MEL > 100 µM

O=C(O)/C(Cl)=C(/Cl)C(=O)Nc1cccc(Cl)c1
inactive: RXF 631 22 µM | DMS-273 12.9 µM | XF498 18.1 µM | DLD-1 15.6 µM | SNB-78 25.2 µM | LXFL 529 15.4 µM | DMS-114 16.6 µM | KM-20L2 19.7 µM | M19-MEL 15.6 µM

Cc1cccc(C)c1NC(=O)C(=O)Cc1nc2ccccc2s1
inactive: DMS-273 > 100 µM | XF498 > 100 µM | DLD-1 > 100 µM | SNB-78 > 100 µM | LXFL 529 > 100 µM | DMS-114 > 100 µM | KM-20L2 > 100 µM | M19-MEL > 100 µM

C[C@]12CCC(=O)C=C1CC[C@@H]1C2CC[C@@]2(C)C1CC[C@@H]2OC(=O)C12OC1CCC2=O (stereo not given in full)
inactive: DMS-273 15.5 µM | XF498 13.9 µM | SNB-78 16.8 µM | LXFL 529 14.8 µM | DMS-114 17.7 µM | KM-20L2 18.7 µM | M19-MEL 16.7 µM

O=S(=O)(O)C1=C2Sc3ccccc3N=C2c2ccccc2C1
inactive: RXF 631 16 µM | DMS-273 15.5 µM | XF498 17.7 µM | DLD-1 15.3 µM | SNB-78 17.8 µM | LXFL 529 12.2 µM | DMS-114 10.3 µM | KM-20L2 18.4 µM

CC1=N/C(=C\c2c(O)ccc3ccccc23)C(=O)O1
inactive: DLD-1 > 100 µM | SNB-78 > 100 µM | LXFL 529 > 100 µM | DMS-114 > 100 µM | KM-20L2 > 100 µM | M19-MEL > 100 µM

CC(c1ccccc1)N1CC(C)(c2ccccc2)N(O)C(c2ccccc2)C1C (stereo not given)
inactive: RXF 631 12.6 µM | DMS-273 7.93 µM | DLD-1 23.7 µM | SNB-78 15.1 µM | LXFL 529 9.06 µM | DMS-114 5.33 µM | KM-20L2 4.39 µM | M19-MEL > 10 µM

COc1cc([C@@H]2c3cc4c(cc3[C@@H](NC(=O)c3cccc([N+](=O)[O-])c3)C3COC(=O)[C@@H]32)OCO4)cc(OC)c1O (stereo not given in full)
active: DMS-273 0.149 µM | DMS-114 0.548 µM
inactive: RXF 631 1.31 µM | DLD-1 3.33 µM | SNB-78 4.73 µM | LXFL 529 10.3 µM | KM-20L2 2.82 µM | M19-MEL 2.55 µM

CN1CCCC2[C@@H]3CCC4=C(O)C(=O)CC[C@]4(C)C3CC[C@@]21C (stereo not given in full)
inactive: RXF 631 > 100 µM | DMS-273 > 100 µM | XF498 > 100 µM | LXFL 529 > 100 µM | DMS-114 > 100 µM | KM-20L2 > 100 µM

COc1ccc(C(=O)C(c2ccc(OC)cc2)C2OC(=O)C(Cl)=C2Cl)cc1 (stereo not given)
inactive: XF498 > 100 µM | DLD-1 > 100 µM | SNB-78 > 100 µM | LXFL 529 > 100 µM | DMS-114 > 100 µM | M19-MEL > 100 µM

COC(=O)CCC1CCc2c(OC)ccc(OC)c2C1=O (stereo not given)
inactive: DMS-273 > 100 µM | DLD-1 > 100 µM | SNB-78 > 100 µM | LXFL 529 > 100 µM | DMS-114 > 100 µM | KM-20L2 > 100 µM

Cc1ccccc1C(C#N)/C(=N/NC(N)=S)C(=O)Nc1c(C)cccc1C (stereo not given)
inactive: RXF 631 > 100 µM | XF498 32.8 µM | DLD-1 > 100 µM | SNB-78 > 100 µM | LXFL 529 > 100 µM | DMS-114 10.4 µM | KM-20L2 > 100 µM | M19-MEL 80 µM

CC(C)(C)c1nc2c(o1)C(=O)c1ccccc1C2=O
inactive: RXF 631 5.92 µM | DMS-273 5.08 µM | XF498 2.67 µM | DLD-1 5.83 µM | SNB-78 11.5 µM | LXFL 529 6.44 µM | DMS-114 2.23 µM | KM-20L2 22.1 µM | M19-MEL 1.25 µM
